Here are results for one molecule from patent US9624223B2, “Morphinan derivative” (THE KITASATO INSTITUTE, priority 2013, dated 2017).

A value given as a limit tells only on which side of the number the result lay.

In one series the target is T1, hERG channel (Homo sapiens, UniProt Q12809).
T1 construct: expressed in transfected cells; host or cells: CHO-K1 cells
The series can be described thus: hERG potassium channel inhibition test (Qpatch16 patch clamp, CHO-K1 cells). Format: cell-based. The following applies: 10 μM; tail current inhibition, hERG-expressing CHO-K1 cells. The procedure:
The test was performed with Qpatch16 (Sophion Biosciences Inc.) full automatic patch clamp system using hERG channel-stably expressing CHO-K1 cells. The hERG channel inhibitory action of each test compound was obtained on the basis of inhibitory action against a tail current induced by a test pulse at […] for 1 second applied after retention at +20 mV for 2 seconds. The test compound was dissolved in an extracellular fluid (137 mM NaCl, 4 mM KCl, 1.8 mM CaCl2, 1 mM MgCl2, 10 mM D(+)-glucose, 10 mM HEPES, pH 7.4), and the solution was […] at room temperature for 5 minutes. The inhibition ratio was obtained from the ratio of the tail current value observed after the compound was applied based on the tail current value observed before the compound was applied, which was taken as 100%. Cells were used for the test, where the cells show a peak tail current value not smaller than 100 pA, tail current run-down smaller than 30% of the initial current value, leak current smaller than 50% of the peak value of the tail current, and series resistance value lower than 20 MΩ.
A general note: hERG is a cardiac potassium channel; its block is linked to QT prolongation.

In the next series the target is T2, δ opioid receptor (Mus musculus, UniProt P32300).
T2 construct: In the assays for the μ and δ receptors, the mouse cerebrum membrane fraction was used; from tissue; host or cells: mouse cerebrum membrane fraction
T2 sequence (P32300 whole entry): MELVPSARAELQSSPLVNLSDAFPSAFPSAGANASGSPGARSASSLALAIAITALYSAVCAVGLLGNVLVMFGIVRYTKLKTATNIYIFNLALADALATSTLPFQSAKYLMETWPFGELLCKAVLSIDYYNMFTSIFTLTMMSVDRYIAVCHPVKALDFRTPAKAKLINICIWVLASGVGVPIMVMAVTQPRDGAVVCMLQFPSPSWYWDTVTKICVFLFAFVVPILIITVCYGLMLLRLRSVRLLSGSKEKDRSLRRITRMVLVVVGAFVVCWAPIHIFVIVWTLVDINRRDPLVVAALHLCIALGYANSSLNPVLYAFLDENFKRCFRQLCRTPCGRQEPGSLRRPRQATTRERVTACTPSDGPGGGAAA
The series can be described thus: Opioid receptor binding test, [3H]DPDPE, mouse cerebrum membrane fraction. The following applies: read-out: Binding affinity (Ki, nM) δ. The protocol: (§1) Binding affinities of the compounds of the present invention to the μ, δ, and κ opioid receptors were examined.
(§2) According to a previous report (J. Biol. Chem., 2001, 276:15409-15414), mouse cerebrum and guinea pig cerebellum membrane fractions were prepared. As radioactive ligands for the opioid receptors, [^3H]DAMGO (μ opioid receptor), [^3H]DPDPE (δ opioid receptor), and [3H]U69,593 (κ opioid receptor) were used. In the assays for the μ and δ receptors, the mouse cerebrum membrane fraction was used, and in the assay for the κ receptor, guinea pig cerebellum membrane fraction was used. For the nonspecific binding, DAMGO, DPDPE, and U69,593 were used at 1 μM for μ, δ and κ receptors, respectively. Each receptor membrane fraction, radioactive ligand, and a sample at various concentrations were reacted for a predetermined time, and after the B/F separation, amount of radioactivity remained on the filter was measured with a liquid scintillation counter, and binding inhibition ratio of the test compound (IC50 value) was calculated. Ki value was calculated by using the resulting IC50 value in accordance with the following equation. Ki=IC50/(1+L/Kd) L: Concentration of radioactive ligand used Kd: Kd value of radioactive ligand
(§3) Further, selectivity for the δ receptor among the opioid receptors was determined by calculating ratio of the Ki value for μ or κ, and the Ki value for δ (μ/δ or κ/δ).
(§4) • [D-Ala^2,N-MePhe^4, Gly-Ol]enkephalin DPDPE: • [D-Pen^2,D-Pen^5]enkephalin

The next series has as its target T3, human opioid receptor κ (Homo sapiens, UniProt P41145).
T3 construct: host or cells: CHO cells
The series can be described thus: Opioid receptor function test (Lance Ultra cAMP Kit), κ receptor. The format is cell-based. The protocol:
(§5) Functional activities of the compounds of the present invention on the μ, δ, and κ opioid receptors were examined.
(§6) The test was performed by using Lance Ultra cAMP Kit (Perkin-Elmer) according the prescribed method. In the evaluation of the agonistic activity, each human opioid receptor (δ, μ, and κ, accession numbers and catalog numbers are mentioned below)-expressing CHO cells and 10 μM of a test compound were reacted for 30 minutes in the presence of forskolin in an assay buffer (1×HBSS, […], pH 7.4, […] (isobutylmethylxanthine), 7.5% BSA). The cAMP detection reagent included in the kit was then added, and 1 hour afterward, time decomposition fluorometry was performed by using EnVision plate reader (Perkin-Elmer). […] The Emax value was calculated as a ratio of the maximum reaction of the test compound based on the maximum reaction of each control drug, which was taken as 100%.
(§7) • (+)-4-[(αR)-α-(2S,5R)-4-Allyl-2,5-dimethyl-1-piperazinyl]-3-methoxybenzyl]-N,N-diethylbenzamide DAMGO: • [D-Ala^2,N-MePhe^4,Gly-ol]enkephalin U-69593: • (+)-(5α,7α,8β)-N-Methyl-N-[7-(1-pyrrolidinyl)-1-oxaspiro[4.5]dec-8-yl]benzeneacetamide Accession Numbers and Catalog Numbers δ: Catalog No. CT4607, accession No. NM_000911.2 μ: Catalog No. CT4605, accession No. NM_000914 κ: Catalog No. CT4606, accession No. NM_000912 (ChanTest Corporation)

Another series addresses T4, κ opioid receptor (Cavia porcellus, UniProt P41144).
T4 construct: in the assay for the κ receptor, guinea pig cerebellum membrane fraction was used; from tissue; host or cells: guinea pig cerebellum membrane fraction
The series is described as follows: Opioid receptor binding test, [3H]U69,593, guinea pig cerebellum membrane fraction. The following applies: ratio of Ki for κ to Ki for δ. The protocol:
as §1, §2, §3

The next series concerns the target T5, μ opioid receptor (Mus musculus, UniProt P42866).
T5 construct: In the assays for the μ and δ receptors, the mouse cerebrum membrane fraction was used; from tissue; host or cells: mouse cerebrum membrane fraction
The series can be described thus: Opioid receptor binding test, [3H]DAMGO, mouse cerebrum membrane fraction. The following applies: ratio of Ki for μ to Ki for δ. The protocol:
as §1, §2, §3, §4

In another series the target is T6, human opioid receptor δ (Homo sapiens, UniProt P41143).
T6 construct: host or cells: CHO cells
T6 sequence (P41143 whole entry): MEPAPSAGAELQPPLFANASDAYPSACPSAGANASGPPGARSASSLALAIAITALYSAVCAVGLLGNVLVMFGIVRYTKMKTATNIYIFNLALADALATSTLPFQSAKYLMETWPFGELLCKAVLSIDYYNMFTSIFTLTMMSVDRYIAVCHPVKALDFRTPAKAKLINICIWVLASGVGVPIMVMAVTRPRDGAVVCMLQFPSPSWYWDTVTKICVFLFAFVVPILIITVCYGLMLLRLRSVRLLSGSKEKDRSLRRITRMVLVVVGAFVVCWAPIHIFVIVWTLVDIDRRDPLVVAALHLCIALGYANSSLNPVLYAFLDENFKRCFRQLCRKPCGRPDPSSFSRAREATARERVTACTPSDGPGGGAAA
The series can be described thus: Opioid receptor function test (Lance Ultra cAMP Kit), δ receptor. The format is cell-based. The procedure: as §5, §6, §7

Another series concerns the target T7, human opioid receptor μ (Homo sapiens, UniProt P35372).
T7 construct: host or cells: CHO cells
The series can be described thus: Opioid receptor function test (Lance Ultra cAMP Kit), μ receptor. The format is cell-based. The protocol:
as §5, §6, §7

T7 sequence (P35372 whole entry): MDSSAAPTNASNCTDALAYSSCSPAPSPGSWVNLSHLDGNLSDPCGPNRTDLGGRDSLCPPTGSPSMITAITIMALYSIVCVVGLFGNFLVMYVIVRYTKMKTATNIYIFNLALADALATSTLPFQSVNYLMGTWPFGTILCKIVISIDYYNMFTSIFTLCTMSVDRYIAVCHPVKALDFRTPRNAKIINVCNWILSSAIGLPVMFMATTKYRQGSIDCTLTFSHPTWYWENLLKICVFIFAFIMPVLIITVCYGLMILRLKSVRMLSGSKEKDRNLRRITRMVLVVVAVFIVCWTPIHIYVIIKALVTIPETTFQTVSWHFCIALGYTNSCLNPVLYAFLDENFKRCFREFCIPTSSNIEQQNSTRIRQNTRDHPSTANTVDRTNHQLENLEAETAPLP
T3 sequence (P41145 whole entry): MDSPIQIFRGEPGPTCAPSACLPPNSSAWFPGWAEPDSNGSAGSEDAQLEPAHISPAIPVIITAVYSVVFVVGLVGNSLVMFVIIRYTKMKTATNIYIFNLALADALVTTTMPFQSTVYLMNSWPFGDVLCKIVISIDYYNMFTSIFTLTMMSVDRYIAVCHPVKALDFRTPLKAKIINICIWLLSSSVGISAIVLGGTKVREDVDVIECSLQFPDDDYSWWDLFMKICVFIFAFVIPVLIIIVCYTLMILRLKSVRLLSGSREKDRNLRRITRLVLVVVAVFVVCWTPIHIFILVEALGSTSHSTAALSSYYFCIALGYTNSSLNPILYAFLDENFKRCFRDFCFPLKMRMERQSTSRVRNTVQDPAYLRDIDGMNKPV
T4 sequence (P41144 whole entry): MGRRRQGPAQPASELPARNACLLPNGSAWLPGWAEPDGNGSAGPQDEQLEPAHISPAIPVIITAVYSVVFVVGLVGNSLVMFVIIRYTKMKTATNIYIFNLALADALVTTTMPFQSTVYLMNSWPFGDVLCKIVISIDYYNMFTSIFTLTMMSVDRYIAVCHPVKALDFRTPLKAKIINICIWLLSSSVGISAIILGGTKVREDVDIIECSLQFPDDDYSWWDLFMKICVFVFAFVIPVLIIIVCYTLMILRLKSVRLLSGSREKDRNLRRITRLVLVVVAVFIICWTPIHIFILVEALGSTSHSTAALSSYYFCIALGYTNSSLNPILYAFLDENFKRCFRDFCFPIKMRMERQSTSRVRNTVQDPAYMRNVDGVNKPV
T5 sequence (P42866 whole entry): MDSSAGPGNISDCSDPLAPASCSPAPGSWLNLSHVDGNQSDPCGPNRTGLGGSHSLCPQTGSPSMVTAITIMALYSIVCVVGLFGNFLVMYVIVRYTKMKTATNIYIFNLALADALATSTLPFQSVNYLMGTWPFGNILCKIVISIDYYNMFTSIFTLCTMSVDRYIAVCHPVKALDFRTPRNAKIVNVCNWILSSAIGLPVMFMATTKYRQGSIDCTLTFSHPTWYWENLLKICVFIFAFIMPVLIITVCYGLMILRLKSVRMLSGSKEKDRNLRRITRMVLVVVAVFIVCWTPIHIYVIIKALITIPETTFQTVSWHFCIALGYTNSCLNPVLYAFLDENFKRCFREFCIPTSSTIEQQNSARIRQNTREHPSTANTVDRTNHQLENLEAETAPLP
T1 sequence (Q12809 whole entry): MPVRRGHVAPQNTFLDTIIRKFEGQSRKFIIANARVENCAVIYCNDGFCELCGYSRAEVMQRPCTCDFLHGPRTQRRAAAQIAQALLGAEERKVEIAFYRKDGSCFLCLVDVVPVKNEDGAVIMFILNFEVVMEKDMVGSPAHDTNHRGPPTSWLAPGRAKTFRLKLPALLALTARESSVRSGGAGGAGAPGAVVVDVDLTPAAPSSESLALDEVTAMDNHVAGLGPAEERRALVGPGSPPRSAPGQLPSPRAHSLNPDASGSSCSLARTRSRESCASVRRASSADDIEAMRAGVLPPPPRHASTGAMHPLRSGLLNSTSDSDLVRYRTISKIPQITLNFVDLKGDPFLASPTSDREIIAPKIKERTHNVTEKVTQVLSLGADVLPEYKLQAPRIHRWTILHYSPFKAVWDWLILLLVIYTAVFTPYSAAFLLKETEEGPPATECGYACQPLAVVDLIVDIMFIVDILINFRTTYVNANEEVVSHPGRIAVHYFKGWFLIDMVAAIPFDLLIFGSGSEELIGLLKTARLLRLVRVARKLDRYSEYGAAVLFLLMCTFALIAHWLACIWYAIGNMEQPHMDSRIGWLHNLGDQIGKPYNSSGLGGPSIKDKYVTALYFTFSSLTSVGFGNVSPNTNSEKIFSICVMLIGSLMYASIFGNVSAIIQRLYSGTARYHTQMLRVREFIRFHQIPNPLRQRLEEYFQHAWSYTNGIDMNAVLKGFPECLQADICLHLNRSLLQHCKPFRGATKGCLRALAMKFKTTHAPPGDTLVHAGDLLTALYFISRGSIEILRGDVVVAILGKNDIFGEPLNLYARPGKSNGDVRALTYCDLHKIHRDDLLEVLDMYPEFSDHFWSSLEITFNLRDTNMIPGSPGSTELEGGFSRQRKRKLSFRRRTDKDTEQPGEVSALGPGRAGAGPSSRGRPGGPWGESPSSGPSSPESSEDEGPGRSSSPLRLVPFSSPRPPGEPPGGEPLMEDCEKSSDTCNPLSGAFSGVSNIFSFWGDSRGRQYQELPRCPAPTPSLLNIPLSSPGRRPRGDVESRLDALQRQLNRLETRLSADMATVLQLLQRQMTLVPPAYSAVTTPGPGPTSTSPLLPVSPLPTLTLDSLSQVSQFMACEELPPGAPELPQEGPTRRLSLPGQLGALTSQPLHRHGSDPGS

As for `NCCN1CC[C@@]23c4cc(O)ccc4C[C@@H]1[C@]21CC[C@@H]2[C@H]3[C@@H](CN2C(=O)c2ccccc2)C1` [Compound 13, [(1S,3aR,5aS,6R,11bR,11cS)-14-(2-aminoethyl)-10-hydroxy-1,2,3a,4,5,6,7,11c-octahydro-3H-6,11b-(epiminoethano)-1,5a-methanonaphtho[1,2-e]indol-3-yl](phenyl)methanone], on hERG channel, the “HERG channel inhibitory action” value is on record as under 50%. Moreover, on δ opioid receptor, the Ki (commonly a measure of affinity in units of concentration, obtained from inhibition or displacement) was under 10 nM. The EC50 – broadly, the concentration needed to bring the measured effect to its halfway point – on human opioid receptor κ (agonistic activity, human κ receptor-expressing CHO cells, cAMP, forskolin) is over 100 nM; on human opioid receptor δ (agonistic activity, human δ receptor-expressing CHO cells, cAMP, forskolin) it was under 10 nM; at human opioid receptor μ (agonistic activity, human μ receptor-expressing CHO cells, cAMP, forskolin), over 100 nM. For the same molecule, the values for the Emax on human opioid receptor κ (maximum reaction relative to U-69593 taken as 100%), at human opioid receptor δ (maximum reaction relative to SNC 80 taken as 100%) and on human opioid receptor μ (maximum reaction relative to DAMGO taken as 100%) were 12%, 101% and 39%, respectively. Further, the “δ-receptor selectivity (Ki value ratio) κ/δ” value on κ opioid receptor is over 10. Also, the “δ-receptor selectivity (Ki value ratio) μ/δ” value on μ opioid receptor was over 10.
